Experimental data as given in ChEMBL document CHEMBL5346943, “Discovery and Structural Optimization of Novel Quinolone Derivatives as Potent Irreversible Pan-Fibroblast Growth Factor Receptor Inhibitors for Treating Solid Tumors” (J Med Chem, 2023).
Converted amounts (≈) assume the structure as drawn.

Legend:
[1] = biological target: Fibroblast growth factor receptor 4 (Homo sapiens, UniProt P22455); assay: Inhibition of FGFR4 (unknown origin) incubated for 10 mins followed by substrate addition measured after 60 mins by ADP-Glo luminescence assay
Sequence of Fibroblast growth factor receptor 4 (P22455 whole entry): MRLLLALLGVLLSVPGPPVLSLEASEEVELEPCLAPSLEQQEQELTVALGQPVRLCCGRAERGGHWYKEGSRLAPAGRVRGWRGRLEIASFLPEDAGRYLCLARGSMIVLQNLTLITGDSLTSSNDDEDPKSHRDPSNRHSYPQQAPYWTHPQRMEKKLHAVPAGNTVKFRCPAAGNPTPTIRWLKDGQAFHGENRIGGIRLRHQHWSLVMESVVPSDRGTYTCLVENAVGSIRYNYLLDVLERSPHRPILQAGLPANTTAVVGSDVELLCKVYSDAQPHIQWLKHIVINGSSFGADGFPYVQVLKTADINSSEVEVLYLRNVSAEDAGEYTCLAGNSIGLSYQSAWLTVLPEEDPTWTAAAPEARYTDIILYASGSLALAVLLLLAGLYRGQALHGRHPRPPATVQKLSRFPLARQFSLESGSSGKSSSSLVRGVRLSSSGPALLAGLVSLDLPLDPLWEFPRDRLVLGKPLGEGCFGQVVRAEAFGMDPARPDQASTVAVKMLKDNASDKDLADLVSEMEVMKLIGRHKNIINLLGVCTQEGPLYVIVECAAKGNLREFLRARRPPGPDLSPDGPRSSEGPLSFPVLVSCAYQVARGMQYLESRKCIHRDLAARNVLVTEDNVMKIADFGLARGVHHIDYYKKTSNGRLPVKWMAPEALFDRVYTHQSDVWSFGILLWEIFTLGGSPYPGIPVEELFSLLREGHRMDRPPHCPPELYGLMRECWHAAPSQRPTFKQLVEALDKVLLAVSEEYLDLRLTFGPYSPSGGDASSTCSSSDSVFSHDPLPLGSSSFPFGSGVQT

[2] = Microsomal stability in human liver microsomes assessed as half life preincubated for 10 mins followed by NADPH addition measured upto 60 mins by LC-MS/MS analysis; format: ADME, Microsome; conditions: time < 70 min
[3] = Solubility of the compound in PBS buffer of pH7.4 at 10 mM measured after 2 hrs by LC-MS/MS analysis; format: physicochemical; conditions: pH 7.4
[4] = Permeability of the compound at 10 uM preincubated in acceptor compartment for 16 hrs followed by 16 hrs incubation in donor compartment by PAMPA based LC-MS/MS analysis; format: ADME; conditions: time 32 hrs, read-out: permeability
[5] = Ionization constant, pKa of the compound in PBS buffer at pH 1.42 to 12.33 by electrochemical method; format: physicochemical
[6] = Half life in Sprague-Dawley rat measured at 2 mg/kg, iv for 0.083 to 24 hrs by LC-MS/MS analysis; format: ADME, organism-based; conditions: in vivo, time 0.083-24 hrs
[7] = Cmax in Sprague-Dawley rat measured at 10 mg/kg, po for 0.083 to 24 hrs by LC-MS/MS analysis; format: ADME, organism-based; design: time 0.083-24 hrs, dose 10 mg/kg, route po; conditions: in vivo
[8] = AUC (0 to t) in Sprague-Dawley rat measured at 10 mg/kg, po for 0.083 to 24 hrs by LC-MS/MS analysis; format: ADME, organism-based; design: dose 10 mg/kg, time upper 24 hrs, time lower 0.083 hrs, route po; conditions: in vivo
[9] = Oral bioavailability in Sprague-Dawley rat measured at 10 mg/kg for 0.083 to 24 hrs by LC-MS/MS analysis; format: ADME, organism-based; conditions: in vivo, time 0.083-24 hrs
[10] = Cmax in Sprague-Dawley rat measured at 30 mg/kg, po for 0.083 to 24 hrs by LC-MS/MS analysis; format: ADME, organism-based; design: dose 30 mg/kg, time upper 24 hrs, time lower 0.083 hrs, route po; conditions: in vivo
[11] = Cmax in Sprague-Dawley rat measured at 60 mg/kg, po for 0.083 to 24 hrs by LC-MS/MS analysis; format: ADME, organism-based; design: dose 60 mg/kg, time 0.083-24 hrs, route po; conditions: in vivo
[12] = Cmax in Sprague-Dawley rat measured at 100 mg/kg, po for 0.083 to 24 hrs by LC-MS/MS analysis; format: ADME, organism-based; design: time upper 24 hrs, dose 100 mg/kg, time lower 0.083 hrs, route po; conditions: in vivo
[13] = Half life in Sprague-Dawley rat measured at 60 mg/kg, po for 0.083 to 24 hrs by LC-MS/MS analysis; format: ADME, organism-based; conditions: in vivo, time 0.083-24 hrs
[14] = Tmax in Sprague-Dawley rat measured at 100 mg/kg, po for 0.083 to 24 hrs by LC-MS/MS analysis; format: ADME, organism-based; conditions: in vivo, time 0.083-24 hrs
HT-29 = assay: Antiproliferative activity against human HT-29 cells incubated for 72 hrs by Cell counting kit 8 method; format: functional, cell-based; conditions: HT-29, 72 h
NCI-H1581 [15] = assay: Antiproliferative activity against human NCI-H1581 cells incubated for 72 hrs by Cell counting kit 8 method; format: functional, cell-based; conditions: NCI-H1581, 72 h
Huh-7 = assay: Antitumor activity against human Huh-7 cells xenografted in BALB/c nude mouse assessed as tumor growth inhibition once daily at 60 mg/kg, po for 24 days relative to control; format: functional; design: scale not given: the % may be the effect or the level left; conditions: time 24 day
NCI-H1581 [16] = assay: Antitumor activity against human NCI-H1581 cells xenografted in BALB/c nude mouse assessed as tumor growth inhibition once daily at 60 mg/kg, po for 24 days relative to control; format: functional; design: scale not given: the % may be the effect or the level left; conditions: time 24 day
[17] = Toxicity in […] nude mouse xenografted with Huh-7 cells assessed as change in body weight once daily at 15 to 60 mg/kg, po for 24 days relative to control; format: organism-based; conditions: in vivo, 576 h, dose 15-60 mg/kg, time 24 day

IC50 [1]: 1.8 nM
half-life [2]: 61.9 min
solubility at 2 h, 10000 µM [3]: 1.73 µM (≈ 0.901 µg/mL)
Papp at 16 h, 10 µM [4]: 12.3 ×10⁻⁶ cm/s
pKa [5]: 5.77
half-life [6]: 15.6 min
Cmax [7]: 1800 ng/mL
AUC(0-t) [8]: 1730 ng·h/mL
bioavailability [9]: 60.7%
Cmax [10]: 6070 ng/mL
Cmax [11]: 7990 ng/mL
Cmax [12]: 14600 ng/mL
half-life [13]: 145 min
Tmax [14]: 30 min
IC50 (HT-29): 7230 nM
IC50 (NCI-H1581 [15]): < 0.31 nM
SMILES: C=CC(=O)N1CCC(c2cc3c(Oc4ccc(NC(=O)NC5CC5)c(Cl)c4)ccnc3cc2OC)CC1
Activity (Huh-7): 88.2%
Activity (NCI-H1581 [16]): 67%
Activity [17]: Active
